The source of these data is patent US9238040B2, “Chemoprevention of colorectal cancer by mesalamine/sulfasalazine” (RUTGERS, THE STATE UNIVERSITY OF NEW JERSEY, priority 2005, dated 2016).

One assay has as its system TC22. Nature of the assay: FACS of TC22 expression in LS180 colon cancer cells (antibody TC22-4). Type of assay: cell-based, human. Particulars: 4 hours, Serum Free Media. The method, then: Specific monoclonal antibodies, CG3 for hTM5 and TC22-4 for TC22 were used against the cells in a fluorescent activated cell sorter (FACS). Reverse transcriptase PCR (RT-PCR) was utilized to quantify the transcription of hTM5 and TC-22. […] Dishes were washed with 10 ml PBS 3 times. Cells were detached with 0.25% trypsin-EDTA and collected. All cells were >90% viable. The cells were washed and then fixed by using 4% paraformaldehyde for 5 minutes. Cells were washed 2 times. Cells were then resuspended and the first antibody was added: MOPC IgM(0.5 mg/mL) 1 μl (1:100), MOPCIgG(0.5 mg/mL) 1 μl (1:100), CG3 IgM(2.4 mg/mL) 1 μL of (2+3 μL Buffer) (1:250) for hTM5, TC22-4 IgG(30 mg/mL) 1 μL of (1+9 uL Buffer) (1:1000) for TC22. The suspension was incubated at 4° C. for 30 minutes, shaken and washed (2 times) with 30 vol. of PBS/0.5 BSA/2 mm EDTA. The second antibody was added: 1 μl tube (1:100) Cy2 (Cyanine)-conj. G-α-M IgM or Cy2 (Cyanine)-conj. G-α-M IgM, then incubated at 4° C. for 30 minutes, shaken and washed (2 times) with 100 vol. buffer 2 times. The cells were then resuspended in 1 ml wash buffer. FACS was used to detect hTM5 and TC22 expression within 1 hour. […] The graphs show the number of cells as a function of fluorescence intensity. LM1 represents the percent of cells present but not expressing TC22. LM2 represents the percent of cells containing TC22.

Another assay has as its system LS180 cells. Nature of the assay: Microarray analysis of gene expression in LS180 cells. Type of assay: cell-based, human. The settings on record: 200 mM, 4 hours and 24 hours, compared with 5-ASA untreated LS180 cells.

Take `Nc1ccc(O)c(C(=O)O)c1` [5-ASA, 5-Aminosalicylic Acid]: the “expression of TC22 (FACS, FIG. 1f)” value in the assay with TC22 was “reduced the expression of TC22”. In the assay with LS180 cells, the “Number of genes down-regulated” value is above 385 and the “Number of genes up-regulated” value is above 194.
